{"source": "paper PMC11471619", "about": "“A palmitoyl transferase chemical–genetic system to map ZDHHC-specific S-acylation” (Nature Biotechnology, 2024)", "experiment_in_all_cases": "probe loading in HEK293T, FLAG IP, TAMRA click, in-gel fluorescence", "format_in_all_cases": "cell-based", "conditions_in_all_cases": "15 µM, fed as free acid and activated to the CoA ester in cells; covalent thioester", "key": {"ZDHHC15": {"target": "T1, ZDHHC15 (Homo sapiens, UniProt Q96MV8, Y184G)", "T1 construct": "N-terminal 3xFLAG tag; expressed in HEK293T, anti-FLAG immunoprecipitated", "T1 sequence (Q96MV8 1-337 Y184G)": "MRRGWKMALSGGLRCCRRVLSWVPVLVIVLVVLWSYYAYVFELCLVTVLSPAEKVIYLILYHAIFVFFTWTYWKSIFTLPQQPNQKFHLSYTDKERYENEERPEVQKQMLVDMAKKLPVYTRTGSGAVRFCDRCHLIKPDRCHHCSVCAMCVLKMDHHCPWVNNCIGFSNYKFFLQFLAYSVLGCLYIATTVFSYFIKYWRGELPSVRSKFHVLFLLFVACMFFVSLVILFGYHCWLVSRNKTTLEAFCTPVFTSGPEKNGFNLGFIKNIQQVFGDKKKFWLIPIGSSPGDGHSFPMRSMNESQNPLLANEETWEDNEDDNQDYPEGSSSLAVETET", "excerpt": "probe loading in HEK293T, FLAG IP, TAMRA click, in-gel fluorescence on ZDHHC15 | ZDHHC15(Y184G)/20-cPr"}, "ZDHHC3": {"target": "T2, ZDHHC3 (Homo sapiens, UniProt Q9NYG2, I182G)", "T2 construct": "N-terminal 3xFLAG tag; expressed in HEK293T, anti-FLAG immunoprecipitated", "T2 sequence (Q9NYG2 1-299 I182G)": "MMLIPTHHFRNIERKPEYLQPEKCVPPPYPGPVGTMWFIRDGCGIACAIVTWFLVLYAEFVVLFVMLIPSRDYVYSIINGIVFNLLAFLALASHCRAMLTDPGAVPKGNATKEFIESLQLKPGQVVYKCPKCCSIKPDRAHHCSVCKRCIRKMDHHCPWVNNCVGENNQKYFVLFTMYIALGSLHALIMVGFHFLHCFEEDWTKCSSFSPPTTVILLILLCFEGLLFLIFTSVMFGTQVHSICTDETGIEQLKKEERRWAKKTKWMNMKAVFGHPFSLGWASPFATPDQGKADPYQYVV"}, "ZDHHC7": {"target": "T3, ZDHHC7 (Homo sapiens, UniProt Q9NXF8, L57G)", "T3 construct": "N-terminal 3xFLAG tag; expressed in HEK293T, anti-FLAG immunoprecipitated", "T3 sequence (Q9NXF8 1-308 L57G)": "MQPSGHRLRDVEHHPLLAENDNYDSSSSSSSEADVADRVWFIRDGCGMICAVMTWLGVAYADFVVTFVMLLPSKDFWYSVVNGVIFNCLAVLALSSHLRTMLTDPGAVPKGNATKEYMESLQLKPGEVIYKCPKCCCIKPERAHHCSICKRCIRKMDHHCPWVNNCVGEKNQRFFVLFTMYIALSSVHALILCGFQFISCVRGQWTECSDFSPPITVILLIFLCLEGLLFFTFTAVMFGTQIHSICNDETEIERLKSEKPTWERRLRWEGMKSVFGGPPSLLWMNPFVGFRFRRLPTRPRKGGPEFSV", "excerpt": "probe loading in HEK293T, FLAG IP, TAMRA click, in-gel fluorescence on ZDHHC7 | ZDHHC7(L57G)/20-Bz"}, "ZDHHC11": {"target": "T4, ZDHHC11 (Homo sapiens, UniProt Q9H8X9, M181A)", "T4 construct": "N-terminal 3xFLAG tag; expressed in HEK293T, anti-FLAG immunoprecipitated", "T4 sequence (Q9H8X9 1-412 M181A)": "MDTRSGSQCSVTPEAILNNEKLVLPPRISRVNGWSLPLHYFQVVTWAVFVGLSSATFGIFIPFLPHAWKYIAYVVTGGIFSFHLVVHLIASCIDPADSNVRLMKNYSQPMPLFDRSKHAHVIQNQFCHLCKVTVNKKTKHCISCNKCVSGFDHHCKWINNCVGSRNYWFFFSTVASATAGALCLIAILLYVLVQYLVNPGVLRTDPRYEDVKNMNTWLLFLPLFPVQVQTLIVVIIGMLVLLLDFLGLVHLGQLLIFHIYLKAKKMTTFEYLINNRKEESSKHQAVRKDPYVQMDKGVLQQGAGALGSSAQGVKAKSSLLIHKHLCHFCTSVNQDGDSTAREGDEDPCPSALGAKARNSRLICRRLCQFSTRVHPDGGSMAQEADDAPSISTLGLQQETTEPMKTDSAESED", "excerpt": "probe loading in HEK293T, FLAG IP, TAMRA click, in-gel fluorescence on ZDHHC11 | ZDHHC11(M181A)/16-cPr"}}}
{"smiles": "C#CCN(CCCCCCCCCCCCCCCC(=O)O)C(=O)C1CC1", "note": "[6h, 16-(N-(Prop-2-yn-1-yl)cyclopropanecarboxamido)hexadecanoic acid]", "values": [{"measurement": "probe loading in HEK293T, FLAG IP, TAMRA click, in-gel fluorescence", "setting": "ZDHHC15", "result": "ZDHHC15(Y184G)/20-cPr"}, {"measurement": "probe loading in HEK293T, FLAG IP, TAMRA click, in-gel fluorescence", "setting": "ZDHHC3", "result": "four additional optimized mutant/probe pairs: ZDHHC3(I182G)/20-cPr"}]}
{"smiles": "C#CCN(CCCCCCCCCCCCCCCC(=O)O)C(=O)c1ccccc1", "note": "[6i, 16-(N-(Prop-2-yn-1-yl)benzamido)hexadecanoic acid]", "values": [{"measurement": "probe loading in HEK293T, FLAG IP, TAMRA click, in-gel fluorescence", "setting": "ZDHHC7", "result": "ZDHHC7(L57G)/20-Bz"}]}
{"smiles": "C#CCN(CCCCCCCCCCCC(=O)O)C(=O)C1CC1", "note": "[6b, 12-(N-(Prop-2-yn-1-yl)cyclopropanecarboxamido)dodecanoic acid]", "values": [{"measurement": "probe loading in HEK293T, FLAG IP, TAMRA click, in-gel fluorescence", "setting": "ZDHHC11", "result": "ZDHHC11(M181A)/16-cPr"}]}
